Laboratory results as given in the NIST ThermoML archive (doi:10.1016/j.jct.2018.01.019).

Experiment: molar heat capacity at constant pressure
Details: 101.33 kPa, Crystal 2, Small sample (50 mg) DSC

O=[Si]=O [silicon dioxide]
Details	molar heat capacity at constant pressure [J/K/mol]
794.62 K	71.82
794.79 K	71.62
794.95 K	71.49
795.12 K	71.46
795.29 K	71.47
795.45 K	71.5
795.62 K	71.77
795.78 K	71.9
795.95 K	71.83
796.12 K	71.66
796.29 K	71.81
796.46 K	72.04
796.62 K	72.01
796.79 K	71.86
796.96 K	71.68
797.12 K	71.48
797.29 K	71.6
797.46 K	71.73
797.62 K	71.68
797.79 K	71.65
797.96 K	71.81
798.13 K	71.82
798.29 K	71.7
798.46 K	71.81
798.62 K	71.8
798.79 K	71.9
798.96 K	72.09
799.12 K	72
799.29 K	71.85
799.46 K	71.85
799.62 K	71.85
799.79 K	71.96
799.96 K	72.13
800.12 K	72.26
800.29 K	72.07
800.46 K	71.86
800.63 K	72
800.79 K	72.09
800.96 K	72.12
801.12 K	72.16
801.29 K	71.98
801.46 K	71.96
801.63 K	71.86
801.79 K	71.9
801.96 K	71.86
802.12 K	71.92
802.29 K	71.92
802.46 K	72.04
802.62 K	72.2
802.79 K	72.1
802.96 K	71.91
803.12 K	71.68
803.29 K	71.76
803.46 K	71.76
803.63 K	71.8
803.79 K	72.11
803.96 K	72.29
804.13 K	72.1
804.29 K	71.93
804.46 K	71.94
804.62 K	71.92
804.79 K	71.93
804.96 K	72.09
805.13 K	72.17
805.29 K	72.03
805.46 K	72.03
805.63 K	72
805.79 K	72.07
805.96 K	72.1
806.13 K	72.19
806.29 K	72.25
806.46 K	72.37
806.63 K	72.33
806.79 K	72.24
806.96 K	72.08
807.13 K	71.96
807.3 K	71.9
807.47 K	72.16
807.63 K	72.29
807.8 K	72.39
807.97 K	72.54
808.13 K	72.48
808.3 K	72.36
808.47 K	72.31
808.64 K	72.39
808.81 K	72.34
808.97 K	72.47
809.14 K	72.61
809.3 K	72.59
